Data as given in PMC10683023, “Targeting Glial Cells by Organic Anion-Transporting Polypeptide 1C1 (OATP1C1)-Utilizing L-Thyroxine-Derived Prodrugs” (Journal of Medicinal Chemistry, 2023).

Experiments:
[1] = Enzymatic bioconversion in mouse serum; assay type: in vitro ADME; settings: for Enzymatic stability, remaining percentage, mouse serum: after 5 h incubation
Procedure: (§1) The rates of bioactivation of the prodrugs 1–8 in mouse and human liver S9 fractions, as well as in mouse primary astrocyte–microglia homogenate, were determined at +37 °C. The incubation mixtures were prepared by mixing liver S9 subcellular fraction or brain cell homogenate (final protein concentration 1.0 mg/mL) with isotonic Tris–HCl buffer (pH 7.4) and 10 mM prodrug stock solution in DMSO (the initial concentration of prodrugs was 100 μM and the DMSO concentration was […]). The mixture was incubated for 5 h, and the samples ([…]) were withdrawn at appropriate intervals. The enzymatic reaction was terminated by the addition of ice-cold acetonitrile ([…]), and the samples were centrifuged for 5 min at 12 000 rpm at room temperature and kept on ice until the supernatants were analyzed by the HPLC method described below. In blank reactions, the S9 fractions were replaced with the same volume of buffer. The pseudo-first-order half-lives (t1/2) for the rates of bioconversion of the prodrugs were calculated from the slope of the linear portion of the plotted logarithm of the remaining prodrug concentration versus time. The rates of bioactivation of prodrugs 1–8 in human plasma and mouse serum were determined at 37 °C as above by adding 10 mM stock solution of the prodrug to plasma/serum in a ratio of 1:10 and analyzed similarly to the samples from S9 fractions.
(§2) The amount of prodrug 1–8 was determined by the HPLC system, which consisted of an Agilent 1100 binary pump (Agilent Technologies Inc., Wilmington, DE), an 1100 micro vacuum degasser, an HP 1050 Autosampler, and an HP 1050 variable wavelength detector, operated at 230–240 nm. The chromatographic separations were achieved on an Agilent Zorbax SB-C18 analytical column (4.4 mm × 150 mm, 5 μm) (Agilent Technologies Inc., Wilmington, DE) by using isocratic elution of water containing 0.1% formic acid (pH ca. 3.0) and acetonitrile containing 0.1% formic acid with ratios of 50:50, 30:70, 40:60, 50:50, 50:50, 40:60, 40:60, and 30:70 (v/v), respectively, for prodrug 1–8. […] The lower limit of quantification for prodrugs 1–8 was 0.20 μM. These HPLC methods were also accurate, precise, and selective over the range of 0.5–20 μM.

oatp1a4/1a5/1a6 = assay: Competitive uptake into mouse primary astrocytes in the presence of OATP1A2 inhibitor naringin; assay type: cell-based; settings: 100 μM prodrug, 100 μM NRG, result in words
Procedure: (§3) The competitive uptake in the presence of OATP-inhibitors or competing substrates (100 μM), diclofenac (DFC) and flufenamic acid (FFA), for OATP1C1 and naringin (NRG) for OATP1A2 was carried out as described above with HBSS buffer at pH 7.4 containing 100 μM of the studied compound. The cells were preincubated with the inhibitors for 10 min, and the incubation mixture was removed before adding the studied compound and the inhibitor to the cells. The competitive uptake (30 min) with the inhibitor was then carried out as the normal uptake described above. The concentrations of the studied compounds were analyzed by the HPLC methods described below, calculated from the spiked standard curve, and normalized with the protein concentrations.
as §2

[2] = Enzymatic bioconversion in mouse liver S9 fraction; assay type: in vitro ADME; settings: for Enzymatic stability, remaining percentage, mouse liver S9: after 5 h incubation, 100 μM prodrug; for Enzymatic stability, remaining percentage, mouse liver S9 / half-life at 100 µM: 37 °C, mean ± SD, n = 3; for Bioconversion rate in mouse liver S9 relative to the corresponding T4 derivative: DIT prodrug faster than T4 prodrug; for half-life at 100 µM: mouse, pH 7.4, liver S9 fraction, read-out: Enzymatic bioconversion half-life t1/2, mouse liver
Procedure: as §1, §2

OATP1C1 = target: T1, OATP1C1 (Homo sapiens, UniProt Q9NYB5); assay: Competitive uptake into U-87MG cells in the presence of OATP1C1 inhibitors diclofenac and flufenamic acid; assay type: cell-based; settings: 100 μM prodrug; for Reduction of cellular uptake by DCF: 100 μM diclofenac; for Cellular uptake in the presence of OATP1C1 inhibitors (DCF and FFA): 100 μM inhibitor, result in words
T1 construct: human U-87MG cells that expressed OATP1C1, but not other OATPs; endogenous in cells; host or cells: U-87MG human glioma cells
T1 sequence (Q9NYB5 1-712): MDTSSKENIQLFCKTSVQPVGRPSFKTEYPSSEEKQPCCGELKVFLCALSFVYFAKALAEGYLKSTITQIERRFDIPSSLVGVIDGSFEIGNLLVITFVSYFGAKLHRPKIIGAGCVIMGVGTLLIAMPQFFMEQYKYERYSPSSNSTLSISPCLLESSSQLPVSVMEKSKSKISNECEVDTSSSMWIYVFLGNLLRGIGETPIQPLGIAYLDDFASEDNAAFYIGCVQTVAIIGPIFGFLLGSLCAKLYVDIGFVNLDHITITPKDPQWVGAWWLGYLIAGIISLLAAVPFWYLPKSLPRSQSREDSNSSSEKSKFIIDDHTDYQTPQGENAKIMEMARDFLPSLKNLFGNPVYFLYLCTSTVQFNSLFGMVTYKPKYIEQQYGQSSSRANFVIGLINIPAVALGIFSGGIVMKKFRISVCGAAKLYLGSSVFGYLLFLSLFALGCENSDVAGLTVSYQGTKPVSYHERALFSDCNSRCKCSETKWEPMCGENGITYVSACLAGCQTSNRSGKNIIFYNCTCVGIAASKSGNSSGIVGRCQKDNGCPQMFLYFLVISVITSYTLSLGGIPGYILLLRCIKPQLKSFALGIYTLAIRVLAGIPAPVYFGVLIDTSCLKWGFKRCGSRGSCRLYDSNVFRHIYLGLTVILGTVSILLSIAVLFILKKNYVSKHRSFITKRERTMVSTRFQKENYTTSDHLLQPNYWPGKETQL
Procedure: as §3, §2

Row | Compound | Enzymatic stability, remaining percentage, mouse serum ([1]; 37 °C, mean ± SD, n = 3) [%] | Cellular uptake in the presence of OATP1A2 inhibitor naringin (NRG) (oatp1a4/1a5/1a6) | Enzymatic stability, remaining percentage, mouse liver S9 [2] [%] | Reduction of cellular uptake by DCF (OATP1C1) | Cellular uptake in the presence of OATP1C1 inhibitors (DCF and FFA) (OATP1C1) | inhibition at 30 min, 100 μM (OATP1C1; human, pH 7.4, with flufenamic acid (FFA) 100 μM, 100 μM flufenamic acid, read-out: Inhibition of cellular uptake by FFA) [%] | Bioconversion rate in mouse liver S9 relative to the corresponding T4 derivative [2] | half-life at 100 µM [2] [h] | Bioconversion rate in mouse serum relative to human plasma ([1]; higher in mouse serum) [times] | half-life at 1 mM ([1]; mouse, serum, 37 °C, mean ± SD, n = 3, read-out: Enzymatic bioconversion half-life t1/2, mouse serum) [h]
1 | CC(C(=O)Oc1c(I)cc(Oc2c(I)cc(C[C@H](N)C(=O)O)cc2I)cc1I)c1cccc(C(=O)c2ccccc2)c1 (mixture of isomers) [Prodrug 2, (2S)-2-Amino-3-(4-(4-((2-(3-benzoylphenyl)propanoyl)oxy)-3,5-diiodophenoxy)-3,5-diiodophenyl)propanoic acid] | 98.79 ± 1.21 | greatest decrease | 87.59 ± 1.20 | ca. 56% | reduced more effectively compared to prodrug 1 | ~42 | – | – | – | –
2 | COc1ccc2cc([C@H](C)C(=O)Oc3c(I)cc(C[C@H](N)C(=O)O)cc3I)ccc2c1 [Prodrug 5, (S)-2-Amino-3-(3,5-diiodo-4-(((S)-2-(6-methoxynaphthalen-2-yl)propanoyl)oxy)phenyl)propanoic acid] | 96.75 ± 3.25 | increased | 38.26 ± 4.49 | 25% | affected by DCF but not by FFA | – | 2 times | 4.15 ± 0.761 | – | –
3 | N[C@@H](Cc1cc(I)c(OC(=O)c2ccccc2O)c(I)c1)C(=O)O [Prodrug 3, (S)-2-Amino-3-(4-((2-hydroxybenzoyl)oxy)-3,5-diiodophenyl)propanoic acid] | 14.40 ± 0.60 | – | 99.06 ± 0.94 | – | not affected significantly | – | – | – | 5 | 1.39 ± 0.49
4 | CC(C(=O)Oc1c(I)cc(C[C@H](N)C(=O)O)cc1I)c1ccc(-c2ccccc2)c(F)c1 (mixture of isomers) [Prodrug 7, (2S)-2-Amino-3-(4-((2-(2-fluoro-[1,1′-biphenyl]-4-yl)propanoyl)oxy)-3,5-diiodophenyl)propanoic acid] | 94.89 ± 5.11 | – | 25.19 ± 6.22 | – | significantly reduced | – | around 3 times | 2.69 ± 0.429 | – | –
5 | CC(C(=O)Oc1c(I)cc(Oc2c(I)cc(C[C@H](N)C(=O)O)cc2I)cc1I)c1ccc(-c2ccccc2)c(F)c1 (mixture of isomers) [Prodrug 8, (2S)-2-Amino-3-(4-(4-((2-(2-fluoro-[1,1′-biphenyl]-4-yl)propanoyl)oxy)-3,5-diiodophenoxy)-3,5-diiodophenyl)propanoic acid] | 96.79 ± 3.21 | – | 84.32 ± 0.99 | – | significantly reduced | – | – | – | – | –
6 | COc1ccc2cc([C@H](C)C(=O)Oc3c(I)cc(Oc4c(I)cc(C[C@H](N)C(=O)O)cc4I)cc3I)ccc2c1 [Prodrug 6, (S)-2-Amino-3-(4-(3,5-diiodo-4-(((S)-2-(6-methoxynaphthalen-2-yl)propanoyl)oxy)phenoxy)-3,5-diiodophenyl)propanoic acid] | 98.33 ± 1.67 | increased | 78.10 ± 1.88 | 75% | affected by DCF but not by FFA | – | – | – | – | –
7 | N[C@@H](Cc1cc(I)c(Oc2cc(I)c(OC(=O)c3ccccc3O)c(I)c2)c(I)c1)C(=O)O [Prodrug 4, (S)-2-Amino-3-(4-(4-((2-hydroxybenzoyl)oxy)-3,5-diiodophenoxy)-3,5-diiodophenyl)propanoic acid] | 96.79 ± 3.21 | – | 69.18 ± 0.81 | – | slightly increased | – | – | – | – | –
